The values that follow come from ChEMBL document CHEMBL1153668, “3-Pyridines as replacements for an isoxazole ring: The antirhinoviral activity of pyridine analogues related to disoxaril” (Bioorg Med Chem Lett, 1995).

Series [1] deals with Human rhinovirus sp. The series can be described thus: Antirhinoviral activity against Human Rhinovirus R2. Format: functional.
Series [2] concerns Human rhinovirus sp. The series can be described thus: Antirhinoviral activity against Human Rhinovirus R21. It is filed as functional.
Series [3] has as its system Human rhinovirus sp. The series can be described thus: Antirhinoviral activity against Human Rhinovirus R22. It is filed as functional.
The test system of series [4] is Human rhinovirus sp. The series can be described thus: Antirhinoviral activity against Human Rhinovirus R25. It is filed as functional.
The subject of series [5] is Human rhinovirus sp. The series can be described thus: Antirhinoviral activity against Human Rhinovirus R30. Format: functional.
The test system of series [6] is Human rhinovirus sp. The series can be described thus: Antirhinoviral activity against Human Rhinovirus R41; Not active. Format: functional, organism-based.
Series [7] concerns Human rhinovirus sp. The series can be described thus: Antirhinoviral activity against Human Rhinovirus R50. Format: functional.
Series [8] has as its system Human rhinovirus sp. The series can be described thus: Antirhinoviral activity against Human Rhinovirus R67. Format: functional.
The test system of series [9] is Human rhinovirus sp. The series can be described thus: Antirhinoviral activity against Human Rhinovirus R6; Not active. Format: functional, organism-based.
Series [10] relates to Human rhinovirus sp. The series can be described thus: Antirhinoviral activity against Human Rhinovirus R86. Format: functional.
Series [11] deals with Human rhinovirus sp. The series can be described thus: Antirhinoviral activity against Human Rhinovirus R89. Format: functional.
Series [12] concerns Human rhinovirus sp. The series can be described thus: Antirhinoviral activity against Human Rhinovirus R14; Not active. Format: functional, organism-based.
The test system of series [13] is Human rhinovirus sp. The series can be described thus: Antirhinoviral activity against Human Rhinovirus R15. It is filed as functional.
The test system of series [14] is Human rhinovirus sp. The series can be described thus: Antirhinoviral activity against Human Rhinovirus R1A. It is filed as functional.
Series [15] concerns Human rhinovirus sp. The series can be described thus: Antirhinoviral activity against Human Rhinovirus R1B. It is filed as functional.
The nature of series [16]: Partition coefficient (logP). Format: physicochemical. The settings on record: octanol/water.
Series [17] deals with Human rhinovirus sp. The series can be described thus: Antirhinoviral activity against Human Rhinovirus serotypes R1A, R1B, R2, R6, R14, R15, R21, R22, R25, R30, R41, R50, R67, R86 and R89. Format: functional.
For series [18], the system named is Human rhinovirus sp. The series can be described thus: Antirhinoviral activity against Human Rhinovirus serotypes R1A, R1B, R2, R6, R14, R15, R21, R22, R25, R30, R41, R50, R67, R86 and R89; Inactive against HRV-86. It is filed as functional, organism-based.
For series [19], the system named is Human rhinovirus sp. The series can be described thus: Antirhinoviral activity against Human Rhinovirus serotypes R1A, R1B, R2, R6, R14, R15, R21, R22, R25, R30, R41, R50, R67, R86 and R89. Format: functional.
In series [20] the test system is Human rhinovirus sp. The series can be described thus: Antirhinoviral activity against Human Rhinovirus R41. Format: functional.
Series [21] concerns Human rhinovirus sp. The series can be described thus: Antirhinoviral activity against Human Rhinovirus R6. Format: functional.
The subject of series [22] is Human rhinovirus sp. The series can be described thus: Antirhinoviral activity against Human Rhinovirus R14. Format: functional.
In series [23] the test system is Human rhinovirus sp. The series can be described thus: Antirhinoviral activity against Human Rhinovirus R86; Not active. It is filed as functional, organism-based.
The subject of series [24] is Human rhinovirus sp. The series can be described thus: Antirhinoviral activity against Human Rhinovirus serotypes R1A, R1B, R2, R6, R14, R15, R21, R22, R25, R30, R41, R50, R67, R86 and R89; Inactive against HRV-6, 14, 86. Format: functional, organism-based.

In brackets after ≈: the same amount, converted by molar mass. Activity calls are given as the source filed them. The rule behind the calls is not given here.

Turning to `Cc1cc(-c2nnn(C)n2)cc(C)c1OCCCCCc1ccncc1`, the MIC was 0.26 µM (≈ 0.0914 µg/mL) in series [1]; 0.08 µM (≈ 0.0281 µg/mL) in series [2]; 0.2 µM (≈ 0.0703 µg/mL) in series [3]; 0.11 µM (≈ 0.0387 µg/mL) in series [4]; 0.36 µM (≈ 0.127 µg/mL) in [5]; 0.36 µM (≈ 0.127 µg/mL) in series [7]. The MIC in [8] came to 0.51 µM (≈ 0.179 µg/mL); in series [10] it was 0.43 µM (≈ 0.151 µg/mL); in [11], 0.07 µM (≈ 0.0246 µg/mL); in [13] it was 2.13 µM (≈ 0.749 µg/mL); in [14], 0.68 µM (≈ 0.239 µg/mL); in series [15], 0.27 µM (≈ 0.0949 µg/mL). Also, the MIC result in series [6], in series [9] and in series [12] was “inactive” each time.
Usually logP stands for the decadic logarithm of the partition coefficient of the neutral form, usually between octanol and water. Lower therefore signals lower lipophilicity. `Cc1cc(CCCOc2c(C)cc(-c3nc(C)no3)cc2C)on1`: the logP in series [16] is 3.2. In series [17], the Mean activity stood at 0.22 µM.
The molecule `Cc1noc(-c2cc(C)c(OCCCc3cccnc3)c(C)c2)n1` registered a logP in series [16] of 3.3. The Mean activity entry in series [18] was “inactive”.
`Cc1ccc(CCCOc2c(C)cc(-c3nnn(C)n3)cc2C)cn1` yielded a Mean activity in series [19] of 0.54 µM.
As to `Cc1cc(-c2nnn(C)n2)cc(C)c1OCCCCCc1cccnc1`, the MIC in [1] came out at 0.2 µM (≈ 0.0703 µg/mL); in series [2], 0.03 µM (≈ 0.0105 µg/mL); in series [3], 0.17 µM (≈ 0.0597 µg/mL); in series [4] it was 0.04 µM (≈ 0.0141 µg/mL); in [5] it was 0.17 µM (≈ 0.0597 µg/mL); in [20], 2.16 µM (≈ 0.759 µg/mL). Moreover, the MIC in [7] stood at 2.28 µM (≈ 0.801 µg/mL); in series [21] it was 0.82 µM (≈ 0.288 µg/mL); in series [8], 0.37 µM (≈ 0.13 µg/mL); in series [10], 1.08 µM (≈ 0.38 µg/mL); in series [11] it was 0.03 µM (≈ 0.0105 µg/mL); in series [22] it was 1.05 µM (≈ 0.369 µg/mL). In addition, the MIC worked out at 1.25 µM (≈ 0.439 µg/mL) in series [13], 0.28 µM (≈ 0.0984 µg/mL) in [14] and 0.1 µM (≈ 0.0351 µg/mL) in series [15].
Turning to `Cc1ccc(CCCOc2c(C)cc(-c3nc(C)no3)cc2C)cn1`, in series [16], the logP worked out at 3.8. Also, the Mean activity in series [19] amounted to 0.25 µM.
`Cc1cc(-c2nnn(C)n2)cc(C)c1OCCCCCc1ccccn1`: the MIC in series [1] was 0.34 µM (≈ 0.119 µg/mL); in series [2], 0.05 µM (≈ 0.0176 µg/mL); in series [3] it was 0.21 µM (≈ 0.0738 µg/mL); in [4] it was 0.08 µM (≈ 0.0281 µg/mL); in [5], 0.25 µM (≈ 0.0879 µg/mL); in series [7], 0.36 µM (≈ 0.127 µg/mL). Moreover, the MIC in series [8] came to 1.19 µM (≈ 0.418 µg/mL); in [11], 0.06 µM (≈ 0.0211 µg/mL); in series [22] it was 3.84 µM (≈ 1.35 µg/mL); in series [13], 1.91 µM (≈ 0.671 µg/mL); in series [14], 0.66 µM (≈ 0.232 µg/mL); in [15], 0.11 µM (≈ 0.0387 µg/mL). For the same molecule, the MIC result in [6], in [9] and in [23] was “inactive” each time.
`Cc1cc(CCCOc2c(C)cc(-c3nnn(C)n3)cc2C)on1`: the Mean activity in series [19] was determined as 0.73 µM.
On to `Cc1cc(-c2nnn(C)n2)cc(C)c1OCCCc1cccnc1`, for which the Mean activity entry in series [24] is “inactive”.
With `Cc1cc(CCCCCOc2c(C)cc(-c3nnn(C)n3)cc2C)on1`, the MIC in [1] was found to be 0.04 µM (≈ 0.0142 µg/mL); in series [2], 0.04 µM (≈ 0.0142 µg/mL); in series [3] it was 0.08 µM (≈ 0.0284 µg/mL); in series [4], 0.31 µM (≈ 0.11 µg/mL); in series [5] it was 0.11 µM (≈ 0.0391 µg/mL); in series [20], 1.43 µM (≈ 0.508 µg/mL). Moreover, the MIC is 0.23 µM (≈ 0.0818 µg/mL) in series [7]; 0.98 µM (≈ 0.348 µg/mL) in series [21]; 0.35 µM (≈ 0.124 µg/mL) in [8]; 0.84 µM (≈ 0.299 µg/mL) in series [10]; 0.04 µM (≈ 0.0142 µg/mL) in series [11]; 0.62 µM (≈ 0.22 µg/mL) in [22]. Besides, the figures for the MIC in series [13], in series [14] and in series [15] were 0.77 µM (≈ 0.274 µg/mL), 0.42 µM (≈ 0.149 µg/mL) and 0.1 µM (≈ 0.0355 µg/mL), respectively.
